Results taken from the METLIN SMRT retention time set (Domingo-Almenara et al. 2019).

Assay: gradient 5% acetonitrile 3 min, to 50% in 2 min, to 85% in 15 min, held 3 min, 100 µL/min
Settings: column: Zorbax Extend-C18 2.1 x 50 mm; eluents: water / acetonitrile, 0.1% formic acid
Procedure, shortened: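 The system's dead and dwell volumes were 40 μL and 900 μL, with a Zorbax Extend-C18 column (2.1 × 50 mm, 1.8 μm) run at 100 μL/min in water and acetonitrile containing 0.1% formic acid each. Pure standards were analyzed in mixtures of ~100 molecules by HPLC–quadrupole time-of-flight mass spectrometry in positive and negative ionization mode. Retention time was assigned from computationally picked, manually inspected adduct peaks.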

| SMILES | RP-LC retention time |
| --- | --- |
| Cc1ccc(N2CCN(C(=O)c3cn4cc(C)ccc4n3)CC2)cc1 | 690 s |
| Cc1noc(C)c1CC(=O)N1C[C@H]2C[C@H](C1)[C@H]1CCCC(=O)N1C2 | 599 s |
| COc1cc(OC)c(NC(=O)Cc2nnc(-c3ccc4ncccc4c3)o2)cc1Cl | 936 s |
| Cc1cc(S(=O)(=O)N2C[C@@H](F)C[C@H]2C(=O)N2CCCCC2)ccc1Cl | 885 s |
| CSCc1csc(NC(=O)c2ccc(F)c(F)c2)n1 | 857 s |
| CCc1ccc(S(=O)(=O)N2CCC(c3cc(N)on3)CC2)cc1 | 813 s |
| CCCCOc1ccc(C(=O)N2CCCC2c2nc(-c3ccc(OC)cc3)no2)cc1 (stereo unspecified) | 1180 s |
| O=C(NC1CCCCCC1)c1cccc(-c2nccnc2N2CCCC2)c1 | 1000 s |
| COc1cccc(NC(=O)C2CCCN(S(=O)(=O)c3c[nH]c(C(=O)N4CCCC4)c3)C2)c1 (stereo unspecified) | 765 s |
| c1ccc(-n2cnnc2C2CCCCN2Cc2ccncc2)cc1 (stereo unspecified) | 584 s |
| O=C(Nc1ccc2nccnc2c1)c1csc2c1CCCC2 | 804 s |
| CC(=O)Nc1ccc(NC(=O)C2CC(=O)N(c3ccc4c(c3)CCN4C(=O)C3CC3)C2)cc1 (stereo unspecified) | 658 s |
| CC(NC(=O)c1ccc(C(F)(F)F)cc1)C(=O)Nc1nc2ccccc2[nH]1 (stereo unspecified) | 641 s |
| O=S(=O)(c1cccnc1)N1CCc2[nH]nc(-c3ccc(F)cc3)c2C1 | 740 s |
| COc1ccc(N2CCN(c3cc(SCC(=O)Nc4cc(F)ccc4F)ncn3)CC2)cc1 | 1130 s |

Second part, the compound after the results:

| RP-LC retention time | SMILES |
| --- | --- |
| 1020 s | Cc1noc(-c2cc(=O)n(CC(=O)Nc3ccc(C(C)C)cc3)c3ccccc23)n1 |
| 984 s | CCOc1ccc(-c2noc(Cn3c(=O)n(CC)c(=O)c4ccccc43)n2)cc1OC |
| 705 s | Cc1ncc(C(=O)NC2CC2)c(=O)n1CC(=O)Nc1cc(F)ccc1F |
| 796 s | Cc1c(-c2ccnc(N3CCN(Cc4ccccc4)CC3)n2)cnc2nc(-c3ccc(Cl)cc3)nn12 |
| 847 s | Cc1ccc(Nc2nc(C(=O)NCc3ccc(C)o3)nc3ccccc23)cc1 |
| 605 s | COc1ccc(CCn2ccc3nc(N4CCN(C)CC4)ncc3c2=O)cc1OC |
| 950 s | CCCn1cc(S(=O)(=O)NCc2cccc(Cl)c2)c2cccnc21 |
| 803 s | CNC(=O)c1oc2ccccc2c1NC(=O)C1CCC1 |
| 718 s | O=C(Cc1csc(Nc2cccc(Cl)c2)n1)N1CCN(C(=O)c2ccco2)CC1 |
| 673 s | NC(=O)c1ccsc1NC(=O)c1c[nH]c2ccccc12 |
| 824 s | Cc1ccc(Cn2c(=O)n(CCNC(=O)Cc3ccsc3)c3ncccc32)cc1 |
| 730 s | CCOC(=O)C1CCc2sc(NC(=O)C3COCC(=O)N3Cc3ccccc3)nc21 (stereo unspecified) |
| 994 s | CCc1nc(-c2csc(S(=O)(=O)N3CCC(C(=O)Nc4ccc(C)c(Cl)c4)CC3)c2)no1 |
| 609 s | Cc1ccccc1CN1CCN(CC(=O)N2CCN(Cc3ccccc3)CC2)C(=O)C1=O |
| 782 s | O=C(COc1ccccc1)N1CCC(CNS(=O)(=O)Cc2cccc(F)c2)CC1 |
| 700 s | COC(=O)c1ccc(Cl)cc1NC(=O)N1CCN(C)c2ncccc21 |
| 844 s | CCN1CCN(Cc2ccc(NC(=O)c3ccc(C)c(NC(=O)c4cncc(-c5cccs5)c4)c3)cc2C(F)(F)F)CC1 |
| 839 s | CCN(CC)S(=O)(=O)c1ccc2c(c1)CC(C(=O)NC1CCCCC1)N2C(C)=O (stereo unspecified) |
| 1060 s | CC(C)Oc1ccc(-c2noc(Cn3cnc4c(oc5ccccc54)c3=O)n2)cc1 |
| 646 s | CCN(CCNC(=O)c1cc(=O)n(C)c2c1c(=O)n(C)c(=O)n2C)Cc1ccccc1 |
| 754 s | CC(C)OCCCNC(=O)Cn1c(=O)c2cccn2c2ccc(F)cc21 |
